Results published in patent US12617779B2, “Self degradation-type CDK9 inhibitor prodrug and liposome encapsulating same” (Sumitomo Pharma Co., Ltd., priority 2021, dated 2026).

Assays:
[1] = Stability evaluation of solution formulation (Experimental Example 2); type: physicochemical; conditions: for Production rate of Alvocidib / Residual rate: solution formulation
Protocol: For Example 1, Example 2, Example 5, Example 6, Comparative Example 13 and Comparative Example 14, the attrition rate of the test compound and the conversion rate of the test compound to Alvocidib in a solution formulation were calculated by the following method.
Example 1, Example 2, Example 5, Example 6, Comparative Example 13 and Comparative Example 14 were each added to buffer solutions adjusted to pH 3.0, 4.0 and 5.0, respectively, at a concentration of 0.1 mg/mL, and left at 5° C. After 0, 1, 2 and 4 weeks, the residual rates of the compounds of Example 1, Example 2, […], Comparative Example 13 and Comparative Example 14 and the production rate of Alvocidib were determined by HPLC.
The buffer solutions used at each pH are as follows. • pH 3.0: 5 mM tartrate buffer solution/10% sucrose solution (pH 3.0) • pH 4.0: 5 mM tartrate buffer solution/10% sucrose solution (pH 4.0) • pH 5.0: 5 mM tartrate buffer solution/10% sucrose solution (pH 5.0)
(§1) The measurement conditions for HPLC are as follows.
• column: Acquity UPLC BEH C18, 1.7 um, 50×2.1 mm • column temperature: 40° C. • mobile phase: • A: water containing 0.1% trifluoroacetic acid • B: acetonitrile • A/B (min): • 80/20(0)→75/25(3)→0/100(3.5)→0/100(4)→80/20(4.01)→80/20(5) • flow rate: 0.8 mL/min • detection: ultraviolet visible detector, measurement wavelength 254 nm • injection: 3 μL

[2] = Evaluation of conversion rate to active form in buffer solution (Experimental Example 1); type: physicochemical
Protocol: For Examples 1 to 16 and Comparative Examples 1 to 14, the attrition rate of the test compound and the conversion rate of the test compound to Alvocidib in a buffer solution were calculated by the following method.
Examples 1 to 16 and Comparative Examples 1 to 14 were each left in buffer solutions adjusted to pH 5.0, 5.5, 6.0, 6.5, 7.0 and 7.4, respectively, at a concentration of 25 umol/L at 37° C. After 0, 0.5, 1, 2 and 3 hours, the residual rates of the compounds of Examples […] and the production rate of Alvocidib were determined by HPLC.
The buffer solutions used at each pH are as follows. • pH 5.0: 50 mM citrate buffer solution (pH 5.0) • pH 5.5: 50 mM citrate buffer solution (pH 5.5) • pH 6.0: 50 mM phosphate buffer solution (pH 6.0) • pH 6.5: 50 mM phosphate buffer solution (pH 6.5) • pH 7.0: 50 mM phosphate buffer solution (pH 7.0) • pH 7.4: 50 mM phosphate buffer solution (pH 7.4)
as §1

Compound: CNCCN(C)C(=O)Oc1cc(O)c2c(=O)cc(-c3ccccc3Cl)oc2c1[C@H]1CCN(C)C[C@H]1O [Comparative Example 14, reference compound]
- Stability / conversion to Alvocidib in solution formulation at pH 3 ([1]; pH 3, 5° C., up to 4 weeks): gradually converted to Alvocidib
- Conversion to Alvocidib in solution formulation at pH 5 after 4 weeks ([1]; pH 5, 5° C., after 4 weeks): almost completely converted to Alvocidib
- Production rate of Alvocidib ([1]; pH3.0, 0 week): 1.3%
- Residual rate ([1]; pH3.0, 0 week): 98.5%
- Production rate of Alvocidib ([1]; pH3.0, 1 week): 2.7%
- Residual rate ([1]; pH3.0, 1 week): 97.1%
- Production rate of Alvocidib ([1]; pH3.0, 2 week): 3.9%
- Residual rate ([1]; pH3.0, 2 week): 95.8%
- Production rate of Alvocidib ([1]; pH3.0, 4 week): 6.1%
- Residual rate ([1]; pH3.0, 4 week): 93.6%
- Production rate of Alvocidib ([1]; pH4.0, 0 week): 2.2%
- Residual rate ([1]; pH4.0, 0 week): 97.5%
- Production rate of Alvocidib ([1]; pH4.0, 1 week): 12.8%
- Residual rate ([1]; pH4.0, 1 week): 86.7%
- Production rate of Alvocidib ([1]; pH4.0, 2 week): 21.1%
- Residual rate ([1]; pH4.0, 2 week): 78.3%
- Production rate of Alvocidib ([1]; pH4.0, 4 week): 36.2%
- Residual rate ([1]; pH4.0, 4 week): 63.0%
- Production rate of Alvocidib ([1]; pH5.0, 0 week): 13.2%
- Residual rate ([1]; pH5.0, 0 week): 86.4%
- Production rate of Alvocidib ([1]; pH5.0, 1 week): 72.5%
- Residual rate ([1]; pH5.0, 1 week): 25.7%
- Production rate of Alvocidib ([1]; pH5.0, 2 week): 90.1%
- Residual rate ([1]; pH5.0, 2 week): 8.1%
- Production rate of Alvocidib ([1]; pH5.0, 4 week): 97.1%
- Residual rate ([1]; pH5.0, 4 week): 1.1%
- Production rate of Alvocidib ([2]; pH5.0, 0 hr): 1.2%
- Residual rate ([2]; pH5.0, 0 hr): 97.3%
- Stability in buffer solution at pH 5 ([2]; pH 5, 37° C., up to 2 or 3 hours): unstable
- Conversion to Alvocidib at pH 5 within 3 hours ([2]; pH 5, 37° C., within 3 hours): mostly converted to Alvocidib
- Production rate of Alvocidib ([2]; pH5.0, 0.5 hr): 17.9%
- Residual rate ([2]; pH5.0, 0.5 hr): 80.3%
- Production rate of Alvocidib ([2]; pH5.0, 1 hr): 31.1%
- Residual rate ([2]; pH5.0, 1 hr): 66.8%
- Production rate of Alvocidib ([2]; pH5.0, 2 hr): 53.7%
- Residual rate ([2]; pH5.0, 2 hr): 45.6%
- Production rate of Alvocidib ([2]; pH5.0, 3 hr): 68.5%
- Residual rate ([2]; pH5.0, 3 hr): 30.7%
- Production rate of Alvocidib ([2]; pH5.5, 0 hr): 1.4%
- Residual rate ([2]; pH5.5, 0 hr): 97.2%
- Production rate of Alvocidib ([2]; pH5.5, 0.5 hr): 44.2%
- Residual rate ([2]; pH5.5, 0.5 hr): 53.8%
- Production rate of Alvocidib ([2]; pH5.5, 1 hr): 67.2%
- Residual rate ([2]; pH5.5, 1 hr): 30.3%
- Production rate of Alvocidib ([2]; pH5.5, 2 hr): 88.5%
- Residual rate ([2]; pH5.5, 2 hr): 8.7%
- Production rate of Alvocidib ([2]; pH5.5, 3 hr): 93.9%
- Residual rate ([2]; pH5.5, 3 hr): 2.9%
- Production rate of Alvocidib ([2]; pH6.0, 0 hr): 1.9%
- Residual rate ([2]; pH6.0, 0 hr): 96.7%
- Production rate of Alvocidib ([2]; pH6.0, 0.5 hr): 88.1%
- Residual rate ([2]; pH6.0, 0.5 hr): 9.0%
- Production rate of Alvocidib ([2]; pH6.0, 1 hr): 95.7%
- Residual rate ([2]; pH6.0, 1 hr): 1.2%
- Production rate of Alvocidib ([2]; pH6.0, 2 hr): 97.0%
- Residual rate ([2]; pH6.0, 2 hr): 0.0%
- Production rate of Alvocidib ([2]; pH6.0, 3 hr): 97.1%
- Residual rate ([2]; pH6.0, 3 hr): 0.0%
- Production rate of Alvocidib ([2]; pH6.5, 0 hr): 3.2%
- Residual rate ([2]; pH6.5, 0 hr): 95.4%
- Production rate of Alvocidib ([2]; pH6.5, 0.5 hr): 97.0%
- Residual rate ([2]; pH6.5, 0.5 hr): 0.0%
- Production rate of Alvocidib ([2]; pH6.5, 1 hr): 96.7%
- Residual rate ([2]; pH6.5, 1 hr): 0.0%
- Production rate of Alvocidib ([2]; pH6.5, 2 hr): 98.2%
- Residual rate ([2]; pH6.5, 2 hr): 0.0%
- Production rate of Alvocidib ([2]; pH6.5, 3 hr): 97.6%
- Residual rate ([2]; pH6.5, 3 hr): 0.0%
- Production rate of Alvocidib ([2]; pH7.0, 0 hr): 6.9%
- Residual rate ([2]; pH7.0, 0 hr): 91.7%
- Production rate of Alvocidib ([2]; pH7.0, 0.5 hr): 96.8%
- Residual rate ([2]; pH7.0, 0.5 hr): 0.0%
- Production rate of Alvocidib ([2]; pH7.0, 1 hr): 96.8%
- Residual rate ([2]; pH7.0, 1 hr): 0.0%
- Production rate of Alvocidib ([2]; pH7.0, 2 hr): 96.7%
- Residual rate ([2]; pH7.0, 2 hr): 0.0%
- Production rate of Alvocidib ([2]; pH7.0, 3 hr): 96.7%
- Residual rate ([2]; pH7.0, 3 hr): 0.0%
- Production rate of Alvocidib ([2]; pH7.4, 0 hr): 14.2%
- Residual rate ([2]; pH7.4, 0 hr): 84.4%
- Production rate of Alvocidib ([2]; pH7.4, 0.5 hr): 97.3%
- Residual rate ([2]; pH7.4, 0.5 hr): 0.0%
- Production rate of Alvocidib ([2]; pH7.4, 1 hr): 97.2%
- Residual rate ([2]; pH7.4, 1 hr): 0.0%
- Production rate of Alvocidib ([2]; pH7.4, 2 hr): 97.2%
- Residual rate ([2]; pH7.4, 2 hr): 0.0%
- Production rate of Alvocidib ([2]; pH7.4, 3 hr): 97.2%
- Residual rate ([2]; pH7.4, 3 hr): 0.0%
